Data: patent US20200061026A1, “METHODS AND COMPOSITIONS FOR PREVENTING VECTOR-BORNE DISEASE TRANSMISSION” (The Scripps Research Institute, priority 2016, published 2020)
Like-named read-outs stand apart in the source and are kept apart here.

Columns and labels:
[1] = tested on: Anopheles gambiae (Kisumu); assay: Membrane feeding, Anopheles gambiae Kisumu strain; assay type: in vivo; conditions: read-out: IC50 [95% CI]
Description: Mosquito colonies utilized in the examples were generally maintained as described: The colony of Anopheles stephensi (Sind-Kasur Nijmegen strain) was maintained at the Radboud University Medical Center, Nijmegen, The Netherlands, by 30° C. and 70-80% humidity and on a 12/12 hour day/night cycle. The Anopheles gambiae strains Kisumu and Tiassalé and the Aedes aegypti strains New Orleans and Cayman were reared at the Liverpool Insect Testing Establishment, Liverpool, UK. Kisumu is an insecticide susceptible lab strain. New Orleans was originally colonized by the Centers for Disease Control and Prevention. […]
Isoxazoline compounds fluralaner or afoxolaner were reconstituted in 50% human serum and 50% red blood cells and administered to adult Anopheles stephensi mosquitos via standard membrane feeding. Lethality was assessed 1, 2 or 8 days after exposure. […] The IC50 values of each compound for Anopheles death were determined by logistic regression using a least squares method to find the best fit and are shown in Table 1. IC50 values were calculated by applying a four-parameter logistic regression model using a least-squares method to find the best fit using the Graphpad Prism 5.0 software package. […]

[2] = tested on: Anopheles gambiae (Tiassalé); assay: Membrane feeding, Anopheles gambiae Tiassalé strain (rdl mutation); assay type: in vivo; conditions: for IC50: Anopheles gambiae, read-out: IC50 [95% CI]
Description: Mosquito colonies utilized in the examples were generally maintained as described: The colony of Anopheles stephensi (Sind-Kasur Nijmegen strain) was maintained at the Radboud University Medical Center, Nijmegen, The Netherlands, by 30° C. and 70-80% humidity and on a 12/12 hour day/night cycle. The Anopheles gambiae strains Kisumu and Tiassalé and the Aedes aegypti strains New Orleans and Cayman were reared at the Liverpool Insect Testing Establishment, Liverpool, UK. Kisumu is an insecticide susceptible lab strain. New Orleans was originally colonized by the Centers for Disease Control and Prevention. The Tiassalé strain was colonized from Southern Cote D'Ivoire where resistance to all classes of insecticide is found and the Cayman strain was colonized from Grand Cayman, where Aedes aegypti are highly resistant to DDT and pyrethroid insecticides. Both resistant strains are routinely selected with insecticides to ensure the maintenance of resistance, 0.75% permethrin for Cayman and 0.05% deltamethrin for Tiassalé, and profiled for resistance to a range of insecticides, including 4% dieldrin, to which Tiassalé is resistant but Cayman is susceptible.
(§1) Isoxazoline compounds fluralaner or afoxolaner were reconstituted in 50% human serum and 50% red blood cells and administered to adult Anopheles stephensi mosquitos via standard membrane feeding. Lethality was assessed 1, 2 or 8 days after exposure. FIG. 2A represents a plot of viable Anopheles stephensi versus fluralaner concentration at each day of assessment. FIG. 2B represents a plot of viable Anopheles stephensi versus afoxolaner concentration at each day of assessment. […] The IC50 values of each compound for Anopheles death were determined by logistic regression using a least squares method to find the best fit and are shown in Table 1. IC50 values were calculated by applying a four-parameter logistic regression model using a least-squares method to find the best fit using the Graphpad Prism 5.0 software package.
The membrane feeding experiment described was repeated using the insecticide dieldrin on two strains of Anopheles gambiae: Kisumu and Tiassale. The Tiassale strain has a mutation in the resistance to dieldrin (rdl) locus, which codes for γ-aminobutyric acid (GABA) receptor. The Tiassale strain was resistant to pyrethroids, carbamate, DDT and dieldrin (knockdown resistance (kdr), Ace and rdl mutations). The Kisumu strain was susceptible to killing by all tested insecticides. FIG. 3A represents a plot of percentage survival of Kisumu and Tiassale strains of Anopheles gambiae versus dieldrin concentration. FIG. 3B represents a plot of survival of the Kisumu and Tiassale strains at 10 μM dieldrin. […] Both figures indicate that the dose-response in systemic feed experiment performed here in allows for identification of a resistance profile.
The feed experiment in Anopheles gambiae was repeated using the isoxazoline compounds fluralaner and afoxolaner to determine if the rdl mutation confers resistance to the isoxazoline insecticides. Isoxazoline insecticides target Rdl, but in a location thought to be different from dieldrin. The mosquitos were fed fluralaner or afoxolaner at various concentrations and lethality was assessed after 24 hours. FIG. 4A represents a plot of percentage survival of Kisumu and Tiassale strains of Anopheles gambiae versus fluralaner concentration. FIG. 4B represents a plot of percentage survival of Kisumu and Tiassale strains of Anopheles gambiae versus afoxolaner concentration.

[3] = tested on: Aedes aegypti (New Orleans); assay: Membrane feeding, Aedes aegypti New Orleans strain; assay type: in vivo; conditions: read-out: IC50 [95% CI]
Aedes aegypti (Cayman) = assay: Membrane feeding, Aedes aegypti Cayman strain; assay type: in vivo; conditions: read-out: IC50 [95% CI]
[4] = tested on: various Anopheles and Aedes mosquitos; assay: Membrane feeding, all Anopheles and Aedes strains tested; assay type: in vivo; conditions: read-out: IC50 values, range against all strains tested
Description: as §1

[5] = Further in vitro degradation assay, dog primary hepatocytes
Description: (§2) In a further assay, isoxazolines (fluralaner and afoxolaner) and control compounds (7-Ethoxycoumarin and 7-Hydroxycoumarin [Sigma]) were dissolved in DMSO at 10 and 30 mM respectively, then diluted first 20-fold with 45% methanol in water and a further 10-fold in pre-warmed Williams' Medium E. Cryopreserved human, dog and rat hepatocytes (In Vitro Technologies) were thawed, isolated by percoll gradient and suspended in Williams' Medium E. Cells were then dispensed into the wells of 96-well plates containing 10 μL of diluted compounds, to reach a final concentration of 0.5×10^6 cells/mL and 1 μM of isoxazolines or 3 μM of control. After an incubation at 37° C. of 0, 15, 30, 60 or 90 minutes, the reaction was stopped with acetonitrile. The samples were then shaken for 10 minutes at 500 rpm and centrifuged at 3220 g for 20 minutes. Supernatants were transferred and stored at 4° C. until LC-MS-MS analysis.

[6] = Further in vitro degradation assay, rat primary hepatocytes
Description: as §2

Anopheles mosquitos = assay: Lethal duration estimated by extrapolating published Beagle dog PK curves to killing concentrations
Source text: Data for fluralaner in Beagle dogs was obtained from Walther et al., Parasites & Vectors 8:508. Data from afoxolaner in Beagle dogs was obtained from Letendre et al., Veterinary Parasitology, 201, 190-197.
The lethal duration of fluralaner and afoxolaner was estimated by extrapolating pharmacokinetic curves from published studies in Beagle dogs to the killing concentrations determined by the membrane feeding studies described in Example 2. Data for fluralaner in Beagle dogs was obtained from Walther et al., Parasites & Vectors 8:508. Data from afoxolaner in Beagle dogs was obtained from Letendre et al., Veterinary Parasitology, 201, 190-197. A mathematical model was used to estimate the impact of these compounds on Anopheles stephensi mosquito survival.

Lutzomyia longipalpis = assay: Membrane feeding, sand fly Lutzomyia longipalpis; conditions: in vivo
Source text: (§3) Isoxazoline compounds fluralaner or afoxolaner were reconstituted in 50% human serum and 50% red blood cells and administered to sand flies Lutzomyia longipalpis and Phlebotomus argentipes via standard membrane feeding. These san fly species are vectors for visceral leishmaniasis. FIG. 12A represents a plot of viable Lutzomyia longipalpis versus fluralaner concentration at various times of assessment. FIG. 12B represents a plot of viable Lutzomyia longipalpis versus afoxolaner concentration at various times of assessment. FIG. 12C represents a plot of viable Phlebotomus argentipes versus fluralaner concentration at various times of assessment. FIG. 12D represents a plot of viable Phlebotomus argentipes versus afoxolaner concentration at various times of assessment. […] The EC50 values of each compound for sand fly death were determined by logistic regression using a least squares method to find the best fit and are shown in the figures.

Phlebotomus argentipes = assay: Membrane feeding, sand fly Phlebotomus argentipes; conditions: in vivo
Source text: as §3

[7] = Dog pharmacokinetics (published values); cited from earlier work
[8] = cited from earlier work

O=C(CNC(=O)c1ccc(C2=NO[C@](c3cc(Cl)cc(C(F)(F)F)c3)(C(F)(F)F)C2)c2ccccc12)NCC(F)(F)F (racemic) [Afoxolaner, afoxolaner]
IC50 ([1]; 24 h): 101 nM
IC50 ([2]; 24 h): 101 nM
activity against strain carrying the resistance-to-dieldrin (rdl) mutation (in words) ([2]; Tiassalé strain): fully active
IC50 ([3]; 24 h): 100 nM
IC50 (Aedes aegypti (Cayman); 24 h): 90.2 nM
IC50 [4]: 90 to 107 nM
half-life ([5]; hepatocytes): > 3.61 h
hepatocyte CLint ([5]; hepatocytes): < 6.4 µL/min/1e6 cells
half-life ([6]; hepatocytes): > 3.61 h
hepatocyte CLint ([6]; hepatocytes): < 6.4 µL/min/1e6 cells
time the concentration is above lethal level (Anopheles mosquitos; 1 mg/kg): 43 days
time the concentration is above lethal level (Anopheles mosquitos; 4 mg/kg): 72 days
killing of sand flies (in words) (Lutzomyia longipalpis): effective at killing the sand flies in a dose-dependent manner
killing of sand flies (in words) (Phlebotomus argentipes): effective at killing the sand flies in a dose-dependent manner
CL (plasma clearance) [7]: 4.95 mL/h/kg
Oral bioavailability [7]: 74%
V (volume of distribution) [7]: 2.68 L/kg
half-life [7]: 372 h
embryo-fetal development in rats [8]: unaffected

Cc1cc(C2=NO[C@](c3cc(Cl)cc(Cl)c3)(C(F)(F)F)C2)ccc1C(=O)NCC(=O)NCC(F)(F)F [Fluralaner, fluralaner]
IC50 ([1]; 24 hours after the blood meal, Kisumu strain): 33.3 nM
IC50 ([2]; 24 hours after the blood meal, Tiassalé strain): 33.2 nM
activity against strain carrying the resistance-to-dieldrin (rdl) mutation (in words) ([2]; Tiassalé strain): fully active
IC50 ([3]; 24 hours after the blood meal, New Orleans strain): 34.2 nM
IC50 (Aedes aegypti (Cayman); 24 hours after the blood meal, Cayman strain): 35.8 nM
IC50 ([4]; twenty-four hours after the blood meal): 33 to 56 nM
half-life ([5]; cryopreserved hepatocytes): > 3.61 h
hepatocyte CLint ([5]; cryopreserved hepatocytes): < 6.4 µL/min/1e6 cells
half-life ([6]; cryopreserved hepatocytes): > 3.61 h
hepatocyte CLint ([6]; cryopreserved hepatocytes): < 6.4 µL/min/1e6 cells
time the concentration is above the level lethal to Anopheles mosquitos (Anopheles mosquitos; dose of 56 mg/kg): 72 days
killing of sand flies (in words) (Lutzomyia longipalpis): effective at killing the sand flies in a dose-dependent manner
killing of sand flies (in words) (Phlebotomus argentipes): effective at killing the sand flies in a dose-dependent manner
CL (plasma clearance) [7]: 5.83 mL/h/kg
Oral bioavailability [7]: 11-34%
V (volume of distribution) [7]: 3.1 L/kg
half-life [7]: 360 h
embryo-fetal development in rats [8]: unaffected
